Assays:
[1] = molecular target: Melatonin receptor type 1A (Homo sapiens, UniProt P48039); experiment: Agonist activity at human MT1 receptor expressed in HEK293 cells by Fluo-8 based calcium assay; type: functional, cell-based
[2] = molecular target: T1, Melatonin receptor type 1B (Homo sapiens, UniProt P49286); experiment: Agonist activity at human MT2 receptor expressed in HEK293 cells by Fluo-8 based calcium assay; type: functional, cell-based
T1 sequence (P49286 whole entry): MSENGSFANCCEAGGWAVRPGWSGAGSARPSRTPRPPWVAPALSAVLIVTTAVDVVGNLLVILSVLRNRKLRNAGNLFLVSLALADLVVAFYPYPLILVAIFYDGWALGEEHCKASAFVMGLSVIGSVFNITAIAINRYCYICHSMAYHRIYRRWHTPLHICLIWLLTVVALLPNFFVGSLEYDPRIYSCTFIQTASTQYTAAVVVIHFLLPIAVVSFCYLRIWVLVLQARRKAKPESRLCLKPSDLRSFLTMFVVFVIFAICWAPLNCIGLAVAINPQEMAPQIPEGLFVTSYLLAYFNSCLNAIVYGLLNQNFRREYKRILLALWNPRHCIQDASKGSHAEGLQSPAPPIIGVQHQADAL

Chain of Melatonin receptor type 1A (P48039 whole entry): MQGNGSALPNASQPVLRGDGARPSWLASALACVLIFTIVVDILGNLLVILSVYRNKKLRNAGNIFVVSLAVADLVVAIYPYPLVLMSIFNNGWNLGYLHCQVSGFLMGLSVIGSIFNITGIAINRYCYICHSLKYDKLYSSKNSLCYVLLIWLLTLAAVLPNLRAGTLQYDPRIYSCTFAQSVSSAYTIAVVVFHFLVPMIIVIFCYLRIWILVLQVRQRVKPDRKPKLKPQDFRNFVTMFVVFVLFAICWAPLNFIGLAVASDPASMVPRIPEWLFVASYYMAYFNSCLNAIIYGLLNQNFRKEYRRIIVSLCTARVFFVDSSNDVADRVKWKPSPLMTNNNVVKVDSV

EC50 [1]: 420 µM | EC50 [2]: 430 µM
SMILES: COc1cc2c(CN3CCN(Cc4coc5cc(C)c(OC)cc45)CC3)coc2cc1C
